Experimental findings from patent US20220007687A1, “SHELF STABLE LIQUID FLAVORED CONCENTRATE” (DreamPak LLC, priority 2020, published 2022) are described below.

A short description of data set [1]: pH of acid solutions with sodium citrate buffer (Example 2). Type of data set: physicochemical. To be noted: for delta pH: buffered concentrate (Example 2) compared to concentrate without buffer (Example 1); for pH: concentrate: 22 g acid, 2 g sodium citrate, 76 ml water. As to the method:
The impact of adding a buffer to solutions of lactic, citric, and malic acid is researched. With each acid, 22 g of the acid is mixed with 2 g of sodium citrate in 76 ml of water, and pH readings of the concentrates are obtained, then 2 ml of the concentrates is diluted in 250 ml of water and the resulting solutions were evaluated for taste and mouthfeel.

The nature of data set [2]: pH of acid solutions in water (Example 1). The format is physicochemical. The following applies: 22 g acid in 78 ml water; 2 ml of the mixture diluted in 250 ml water. How it is done:
The pH, taste, and mouthfeel of lactic, citric, and malic acids are compared. With each acid, 22 g of the acid is mixed in 78 ml of water, then 2 ml of the mixture is diluted in 250 ml of water, and pH readings of the diluted solutions are obtained.

As for `O=C(O)CC(O)(CC(=O)O)C(=O)O` [Citric Acid, citric acid], the “delta pH” value in data set [1] is recorded as 0.87. Besides, the figures for the pH in data set [1] and in data set [2] were 2.02 and 1.15, respectively.
As to `CC(O)C(=O)O` (stereo not drawn) [Lactic Acid, 2-hydroxypropionic acid], in data set [1], the “delta pH” value is reported as 1.04 and the pH is 2.49. In addition, the pH in data set [2] is reported as 1.45.
In the case of `O=C(O)CC(O)C(=O)O` (stereo not drawn) [Malic Acid, malic acid], in data set [1], the “delta pH” value is 0.79 and the pH amounted to 2.12. Besides, the pH in data set [2] stood at 1.33.
